According to PubChem BioAssay (NCI):
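Where inhibition never reached the appropriate level, the endpoint shown equals the highest concentration tested. Otherwise, values were interpolated linearly from a five-concentration, 48-hour dose response in 96-well plates. TGI denotes the concentration required for complete inhibition of growth.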

Experiments:
Assay in all cases: NCI-60 cell line screen, 48 h
786-0 renal = tested on: 786-0 renal
A549 NSCLC = tested on: A549 NSCLC
ACHN renal = tested on: ACHN renal
BT-549 breast = tested on: BT-549 breast
CAKI-1 renal = tested on: CAKI-1 renal
CCRF-CEM leukemia = tested on: CCRF-CEM leukemia
COLO 205 colon = tested on: COLO 205 colon
DU-145 prostate = tested on: DU-145 prostate
EKVX NSCLC = tested on: EKVX NSCLC
HCC-2998 colon = tested on: HCC-2998 colon
HCT-116 colon = tested on: HCT-116 colon
HCT-15 colon = tested on: HCT-15 colon
HL-60(TB) leukemia = tested on: HL-60(TB) leukemia
HOP-62 NSCLC = tested on: HOP-62 NSCLC
HOP-92 NSCLC = tested on: HOP-92 NSCLC
HS 578T breast = tested on: HS 578T breast
HT29 colon = tested on: HT29 colon
IGROV1 ovarian = tested on: IGROV1 ovarian
K-562 leukemia = tested on: K-562 leukemia
KM12 colon = tested on: KM12 colon
LOX IMVI melanoma = tested on: LOX IMVI melanoma
M14 melanoma = tested on: M14 melanoma
MALME-3M melanoma = tested on: MALME-3M melanoma
MCF7 breast = tested on: MCF7 breast
MDA-MB-231 breast = tested on: MDA-MB-231 breast
MDA-MB-435 = tested on: MDA-MB-435
MDA-N = tested on: MDA-N
MOLT-4 leukemia = tested on: MOLT-4 leukemia
NCI-H226 lung = tested on: NCI-H226 lung
NCI-H23 lung = tested on: NCI-H23 lung
NCI-H460 lung = tested on: NCI-H460 lung
NCI-H522 lung = tested on: NCI-H522 lung
NCI/ADR-RES ovarian = tested on: NCI/ADR-RES ovarian
OVCAR-3 ovarian = tested on: OVCAR-3 ovarian
OVCAR-4 ovarian = tested on: OVCAR-4 ovarian
OVCAR-5 ovarian = tested on: OVCAR-5 ovarian
OVCAR-8 ovarian = tested on: OVCAR-8 ovarian
PC-3 prostate = tested on: PC-3 prostate
RPMI-8226 leukemia = tested on: RPMI-8226 leukemia
RXF 393 renal = tested on: RXF 393 renal
SF-268 CNS = tested on: SF-268 CNS
SF-539 CNS = tested on: SF-539 CNS
SK-MEL-2 melanoma = tested on: SK-MEL-2 melanoma
SK-MEL-28 melanoma = tested on: SK-MEL-28 melanoma
SK-MEL-5 melanoma = tested on: SK-MEL-5 melanoma
SK-OV-3 ovarian = tested on: SK-OV-3 ovarian
SN12C renal = tested on: SN12C renal
SNB-19 CNS = tested on: SNB-19 CNS
SNB-75 CNS = tested on: SNB-75 CNS
SR leukemia = tested on: SR leukemia
SW-620 colon = tested on: SW-620 colon
T-47D breast = tested on: T-47D breast
TK-10 renal = tested on: TK-10 renal
U251 CNS = tested on: U251 CNS
UACC-257 melanoma = tested on: UACC-257 melanoma
UACC-62 melanoma = tested on: UACC-62 melanoma
UO-31 renal = tested on: UO-31 renal
SF-295 CNS = tested on: SF-295 CNS

Measured: TGI

O=c1cnn(C2OC(C(O)CO)C(O)C2O)c(=O)[nH]1 (centres undefined)
> 100 µM: 786-0 renal | A549 NSCLC | ACHN renal | BT-549 breast | CAKI-1 renal | CCRF-CEM leukemia | COLO 205 colon | DU-145 prostate | EKVX NSCLC | HCC-2998 colon | HCT-116 colon | HCT-15 colon | HL-60(TB) leukemia | HOP-62 NSCLC | HOP-92 NSCLC | HS 578T breast | HT29 colon | IGROV1 ovarian | K-562 leukemia | KM12 colon | LOX IMVI melanoma | M14 melanoma | MALME-3M melanoma | MCF7 breast | MDA-MB-231 breast | MDA-MB-435 | MDA-N | MOLT-4 leukemia | NCI-H226 lung | NCI-H23 lung | NCI-H460 lung | NCI-H522 lung | NCI/ADR-RES ovarian | OVCAR-3 ovarian | OVCAR-4 ovarian | OVCAR-5 ovarian | OVCAR-8 ovarian | PC-3 prostate | RPMI-8226 leukemia | RXF 393 renal | SF-268 CNS | SF-539 CNS | SK-MEL-2 melanoma | SK-MEL-28 melanoma | SK-MEL-5 melanoma | SK-OV-3 ovarian | SN12C renal | SNB-19 CNS | SNB-75 CNS | SR leukemia | SW-620 colon | T-47D breast | TK-10 renal | U251 CNS | UACC-257 melanoma | UACC-62 melanoma | UO-31 renal

CCCCS(=O)CCC(N)P(=O)(O)O (centres undefined)
> 100 µM: 786-0 renal | A549 NSCLC | ACHN renal | BT-549 breast | CAKI-1 renal | CCRF-CEM leukemia | COLO 205 colon | DU-145 prostate | EKVX NSCLC | HCT-116 colon | HCT-15 colon | HL-60(TB) leukemia | HOP-62 NSCLC | HOP-92 NSCLC | HS 578T breast | HT29 colon | IGROV1 ovarian | K-562 leukemia | KM12 colon | LOX IMVI melanoma | M14 melanoma | MALME-3M melanoma | MCF7 breast | MDA-MB-435 | MDA-N | MOLT-4 leukemia | NCI-H226 lung | NCI-H23 lung | NCI-H460 lung | NCI-H522 lung | NCI/ADR-RES ovarian | OVCAR-3 ovarian | OVCAR-4 ovarian | OVCAR-5 ovarian | OVCAR-8 ovarian | PC-3 prostate | RPMI-8226 leukemia | SF-268 CNS | SF-295 CNS | SK-MEL-2 melanoma | SK-MEL-28 melanoma | SK-MEL-5 melanoma | SK-OV-3 ovarian | SN12C renal | SNB-19 CNS | SNB-75 CNS | SR leukemia | SW-620 colon | T-47D breast | TK-10 renal | U251 CNS | UACC-257 melanoma | UACC-62 melanoma | UO-31 renal

N=C1/C(=C/c2ccc(F)cc2)C(=O)N=C2SC=NN12
> 100 µM: 786-0 renal | A549 NSCLC | ACHN renal | BT-549 breast | CAKI-1 renal | CCRF-CEM leukemia | COLO 205 colon | DU-145 prostate | EKVX NSCLC | HCC-2998 colon | HCT-116 colon | HCT-15 colon | HL-60(TB) leukemia | HOP-62 NSCLC | HOP-92 NSCLC | HS 578T breast | HT29 colon | IGROV1 ovarian | K-562 leukemia | KM12 colon | LOX IMVI melanoma | M14 melanoma | MALME-3M melanoma | MCF7 breast | MDA-MB-231 breast | MDA-MB-435 | MDA-N | MOLT-4 leukemia | NCI-H226 lung | NCI-H23 lung | NCI-H460 lung | NCI-H522 lung | NCI/ADR-RES ovarian | OVCAR-3 ovarian | OVCAR-4 ovarian | OVCAR-5 ovarian | OVCAR-8 ovarian | PC-3 prostate | RPMI-8226 leukemia | RXF 393 renal | SF-268 CNS | SF-295 CNS | SF-539 CNS | SK-MEL-2 melanoma | SK-MEL-28 melanoma | SK-MEL-5 melanoma | SK-OV-3 ovarian | SN12C renal | SNB-19 CNS | SNB-75 CNS | SR leukemia | SW-620 colon | T-47D breast | TK-10 renal | U251 CNS | UACC-257 melanoma | UACC-62 melanoma | UO-31 renal
